Assay [1] addresses T1, Alpha-1B adrenergic receptor (Rattus norvegicus, UniProt P15823).
T1 sequence (P15823 whole entry): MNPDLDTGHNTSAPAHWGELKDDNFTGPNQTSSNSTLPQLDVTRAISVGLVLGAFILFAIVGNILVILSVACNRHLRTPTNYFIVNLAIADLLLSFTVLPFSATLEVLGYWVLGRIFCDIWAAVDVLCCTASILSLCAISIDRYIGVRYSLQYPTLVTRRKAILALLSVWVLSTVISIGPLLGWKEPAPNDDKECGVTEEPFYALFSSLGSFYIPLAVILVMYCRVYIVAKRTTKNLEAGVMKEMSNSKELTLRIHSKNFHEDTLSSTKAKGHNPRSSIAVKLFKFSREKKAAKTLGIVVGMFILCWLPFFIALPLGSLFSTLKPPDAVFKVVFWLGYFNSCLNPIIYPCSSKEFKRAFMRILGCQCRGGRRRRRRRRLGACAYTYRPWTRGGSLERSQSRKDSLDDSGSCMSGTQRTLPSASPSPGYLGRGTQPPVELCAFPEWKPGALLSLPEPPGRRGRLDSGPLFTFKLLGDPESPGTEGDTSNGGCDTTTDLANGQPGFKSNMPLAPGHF
Put plainly: DRUGMATRIX: Alpha-1B adrenergic receptor radioligand binding (ligand: prazosin). In kind it is cell membranes, Wistar, Liver, Membrane. Particulars: Not Active = under 50% inhibition at 10 µM.

In assay [2] the target is Beta-3 adrenergic receptor (Homo sapiens, UniProt P13945). Put plainly: DRUGMATRIX: Adrenergic beta3 radioligand binding (ligand: [125I] Cyanopindolol). In kind it is cell membranes, Membrane. The note with it: hek293; Not Active = under 50% inhibition at 10 µM.
Chain of Beta-3 adrenergic receptor (P13945 whole entry): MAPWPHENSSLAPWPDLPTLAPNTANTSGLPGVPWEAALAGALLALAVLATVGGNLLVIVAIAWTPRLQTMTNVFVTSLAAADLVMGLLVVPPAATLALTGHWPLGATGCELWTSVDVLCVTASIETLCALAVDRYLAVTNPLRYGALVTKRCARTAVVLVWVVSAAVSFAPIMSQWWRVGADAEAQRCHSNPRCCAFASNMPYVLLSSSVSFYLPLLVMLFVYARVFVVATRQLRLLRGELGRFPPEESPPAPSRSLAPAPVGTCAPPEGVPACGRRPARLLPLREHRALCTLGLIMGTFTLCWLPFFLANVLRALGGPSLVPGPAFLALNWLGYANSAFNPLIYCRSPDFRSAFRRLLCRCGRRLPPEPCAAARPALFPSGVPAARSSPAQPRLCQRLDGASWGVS
Assay [3] can be described thus: DRUGMATRIX: Atrial Natriuretic Factor (ANF) radioligand binding (ligand: [125I] ANF (rat)). It counts as cell membranes, Cavia porcellus, Dunkin-Hartley, Adrenal gland, Membrane. Particulars: Not Active = under 50% inhibition at 10 µM.
The nature of assay [4]: DRUGMATRIX: Calcium Channel Type L, Phenylalkylamine radioligand binding (ligand: [3H] (-)-Desmethoxyverapamil (D-888)). It counts as cell membranes, Rattus norvegicus, Wistar, Brain, Membrane. The note with it: Not Active = under 50% inhibition at 10 µM.
Assay [5] deals with T2, C-X-C chemokine receptor type 1 (Homo sapiens, UniProt P25024).
T2 sequence (P25024 whole entry): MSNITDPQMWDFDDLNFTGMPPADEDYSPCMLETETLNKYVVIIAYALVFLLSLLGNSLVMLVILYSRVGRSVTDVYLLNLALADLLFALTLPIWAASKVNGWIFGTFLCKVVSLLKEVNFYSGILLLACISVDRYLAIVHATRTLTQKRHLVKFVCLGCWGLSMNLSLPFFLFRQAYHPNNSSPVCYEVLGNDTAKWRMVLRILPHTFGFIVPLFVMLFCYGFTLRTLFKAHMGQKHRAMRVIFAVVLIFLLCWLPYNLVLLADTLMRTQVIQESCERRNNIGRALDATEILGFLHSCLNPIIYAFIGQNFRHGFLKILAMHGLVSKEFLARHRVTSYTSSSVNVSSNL

Assay [6] in a line: DRUGMATRIX: Imidazoline I2, Central radioligand binding (ligand: [3H] Idazoxan). In kind it is cell membranes, Rattus norvegicus, Wistar, Cerebral cortex, Membrane. The note with it: Not Active = under 50% inhibition at 10 µM.
The target of another assay is Nitric oxide synthase 1 (Rattus norvegicus, UniProt P29476). In kind it is tissue-based, Cerebellum. Further: in other assays of this panel Not Active means under 50% inhibition at 10 µM.
Chain of Nitric oxide synthase 1 (P29476 whole entry): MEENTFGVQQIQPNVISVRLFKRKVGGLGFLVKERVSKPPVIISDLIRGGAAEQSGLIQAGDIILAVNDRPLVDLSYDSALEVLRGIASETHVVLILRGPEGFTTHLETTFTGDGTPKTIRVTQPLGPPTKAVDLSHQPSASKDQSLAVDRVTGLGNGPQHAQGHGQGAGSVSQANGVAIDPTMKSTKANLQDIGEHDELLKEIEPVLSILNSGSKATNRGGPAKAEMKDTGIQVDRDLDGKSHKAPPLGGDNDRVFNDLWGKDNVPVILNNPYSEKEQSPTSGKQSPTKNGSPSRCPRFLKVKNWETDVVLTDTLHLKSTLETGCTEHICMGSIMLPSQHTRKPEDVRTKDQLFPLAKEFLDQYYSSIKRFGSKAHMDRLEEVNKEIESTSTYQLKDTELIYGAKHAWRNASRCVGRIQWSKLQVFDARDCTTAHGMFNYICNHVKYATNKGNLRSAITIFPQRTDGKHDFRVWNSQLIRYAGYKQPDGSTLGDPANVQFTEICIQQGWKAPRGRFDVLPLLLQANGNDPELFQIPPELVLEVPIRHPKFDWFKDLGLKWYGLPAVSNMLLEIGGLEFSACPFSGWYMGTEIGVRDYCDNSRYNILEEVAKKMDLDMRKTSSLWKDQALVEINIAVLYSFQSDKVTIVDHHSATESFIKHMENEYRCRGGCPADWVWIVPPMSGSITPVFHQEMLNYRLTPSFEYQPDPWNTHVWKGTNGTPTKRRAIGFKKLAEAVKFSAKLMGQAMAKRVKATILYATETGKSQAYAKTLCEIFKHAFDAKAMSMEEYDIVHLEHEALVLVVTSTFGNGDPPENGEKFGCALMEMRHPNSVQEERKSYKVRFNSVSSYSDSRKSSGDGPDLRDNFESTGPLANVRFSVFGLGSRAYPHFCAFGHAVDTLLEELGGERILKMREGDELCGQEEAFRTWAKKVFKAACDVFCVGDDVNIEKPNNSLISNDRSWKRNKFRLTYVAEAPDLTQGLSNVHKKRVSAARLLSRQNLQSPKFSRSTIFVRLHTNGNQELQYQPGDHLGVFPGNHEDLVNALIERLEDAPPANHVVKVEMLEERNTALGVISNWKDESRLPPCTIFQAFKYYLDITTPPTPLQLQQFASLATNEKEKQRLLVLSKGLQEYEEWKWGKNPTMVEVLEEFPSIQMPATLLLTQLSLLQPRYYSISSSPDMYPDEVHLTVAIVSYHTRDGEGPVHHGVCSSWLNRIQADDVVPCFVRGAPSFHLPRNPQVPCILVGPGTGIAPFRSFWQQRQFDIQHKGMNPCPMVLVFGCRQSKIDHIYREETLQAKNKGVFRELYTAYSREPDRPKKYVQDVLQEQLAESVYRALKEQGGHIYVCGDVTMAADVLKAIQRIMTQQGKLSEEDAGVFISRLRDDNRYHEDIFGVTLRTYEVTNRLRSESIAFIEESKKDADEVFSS
Assay [7] can be described thus: DRUGMATRIX: Phorbol Ester radioligand binding (ligand: [3H] PDBu). In kind it is cell membranes, Mus musculus, ICR, Brain, Membrane. The note with it: Not Active = under 50% inhibition at 10 µM.
The next assay concerns the target T3, Cathepsin G (Homo sapiens, UniProt P08311).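 Further: inhibition of Cathepsin G enzyme activity, tested on an AMC-conjugated peptide substrate; in other assays of this panel Not Active means under 50% inhibition at 10 µM.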
T3 sequence (P08311 whole entry): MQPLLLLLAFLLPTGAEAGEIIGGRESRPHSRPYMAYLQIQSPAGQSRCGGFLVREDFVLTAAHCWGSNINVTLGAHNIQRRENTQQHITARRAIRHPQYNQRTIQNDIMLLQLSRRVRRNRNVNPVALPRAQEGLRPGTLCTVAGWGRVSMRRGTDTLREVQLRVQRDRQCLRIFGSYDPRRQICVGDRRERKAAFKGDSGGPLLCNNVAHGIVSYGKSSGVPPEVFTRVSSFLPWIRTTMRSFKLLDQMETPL
In kind it is tissue-based. The note with it: neutrophil.

Where a SMILES comes first, the peptide text is derived from it. Bridges are numbered along the chain shown (N, C = ends). [ ]: non-standard residue; d: D form. The star is where a group is joined. Threoninol(2S,3R) = C[C@@H](O)[C@H](CO)N*

The text below walks through data of ChEMBL document CHEMBL1909046, “DrugMatrix in vitro pharmacology data”.

Broadly, the IC50 is the midpoint of a concentration-inhibition curve. One may read the Ki as the equilibrium dissociation constant of an inhibitor or competing ligand from its target.

Regarding `COc1ccccc1C(=O)N1CCC(Cc2ccccc2)CC1`, the IC50 result in [1], in assay [2], in assay [3], in assay [4], in assay [5] and in assay [6] was “Not Active” throughout. The IC50 entry (at Nitric oxide synthase 1; in assay [7]; on Cathepsin G) was “Not Active” throughout. Besides, the inhibitory constant (Ki) entry in [3], in assay [4], in [6] and in assay [7] was “Not Active” throughout.

Turning to `Cc1ccccc1C(=O)N1CCC(Cc2ccccc2)CC1`, the concentration for half-maximal inhibition (IC50) result in assay [1], in [2], in assay [3], in [4], in assay [5] and in assay [6] was “Not Active” in each case. Besides, the half-inhibitory concentration (IC50) entry (against Nitric oxide synthase 1; in [7]; at Cathepsin G) was “Not Active” each time. The inhibition constant Ki entry in assay [3], in assay [4], in assay [6] and in assay [7] was “Not Active” each time.

For `O=C1CC[C@H](N2C(=O)c3ccccc3C2=O)C(=O)N1`, the IC50 entry in assay [1], in [2], in assay [3], in [4], in assay [5] and in [6] was “Not Active” in each case. Further, the IC50 result (against Nitric oxide synthase 1; in [7]; against Cathepsin G) was “Not Active” throughout. Moreover, the Ki result in assay [3], in [4], in assay [6] and in assay [7] was “Not Active” in each case.

As to `N=C(Nc1ccccc1)Nc1ccccc1`, the IC50 entry in [1], in assay [2], in assay [3], in [4], in assay [5] and in assay [6] was “Not Active” each time. In addition, the half-inhibitory concentration (IC50) result (against Nitric oxide synthase 1; in assay [7]; at Cathepsin G) was “Not Active” each time. Also, the Ki entry in [3], in [4], in assay [6] and in [7] was “Not Active” in each case.

As to `C[C@@H](O)[C@H](CO)NC(=O)[C@@H]1CSSC[C@H](NC(=O)[C@H](N)Cc2ccccc2)C(=O)N[C@@H](Cc2ccccc2)C(=O)N[C@H](Cc2c[nH]c3ccccc23)C(=O)N[C@@H](CCCCN)C(=O)N[C@@H]([C@@H](C)O)C(=O)N1` (H-[dF]CF[dW]KTC-{Threoninol(2S,3R)}; disulfide 2-7), the IC50 result in assay [1], in [2], in assay [3], in [4], in assay [5] and in assay [6] was “Not Active” each time. Further, the half-maximal inhibitory concentration (IC50) result (against Nitric oxide synthase 1; in assay [7]; at Cathepsin G) was “Not Active” throughout. Moreover, the Ki entry in [3], in [4], in assay [6] and in assay [7] was “Not Active” throughout.

Turning to `S=C=Nc1cccc2ccccc12` [1-NAPHTHYLISOTHIOCYANATE], the IC50 entry in assay [1], in assay [2], in [3], in assay [4], in [5] and in assay [6] was “Not Active” in each case. Further, the IC50 result (at Nitric oxide synthase 1; in [7]; against Cathepsin G) was “Not Active” throughout. In addition, the Ki result in [3], in [4], in assay [6] and in assay [7] was “Not Active” in each case.

As to `C[C@](O)(CS(=O)(=O)c1ccc(F)cc1)C(=O)Nc1ccc(C#N)c(C(F)(F)F)c1` [(R)-BICALUTAMIDE], the 50% inhibitory concentration (IC50) result in assay [1], in [2], in [3], in assay [4], in [5] and in [6] was “Not Active” in each case. In addition, the 50% inhibitory concentration (IC50) result (on Nitric oxide synthase 1; in assay [7]; at Cathepsin G) was “Not Active” throughout. Also, the inhibition constant (Ki) entry in assay [3], in assay [4], in [6] and in assay [7] was “Not Active” throughout.

Take `CCCC(=O)Nc1ccc(OCC(O)CNC(C)C)c(C(C)=O)c1` (stereo not drawn) [ACEBUTOLOL]: the half-inhibitory concentration (IC50) result in assay [1], in [2], in [3], in [4], in [5] and in assay [6] was “Not Active” in each case. Moreover, the 50% inhibitory concentration (IC50) result (on Nitric oxide synthase 1; in [7]; against Cathepsin G) was “Not Active” throughout. The Ki entry in assay [3], in [4], in assay [6] and in assay [7] was “Not Active” throughout.

Consider `CC(=O)Nc1ccc(O)cc1` [ACETAMINOPHEN], for which the IC50 result in [1], in [2], in assay [3], in assay [4], in assay [5] and in assay [6] was “Not Active” in each case. In addition, the half-maximal inhibitory concentration (IC50) entry (at Nitric oxide synthase 1; in assay [7]; against Cathepsin G) was “Not Active” each time. Also, the inhibitory constant (Ki) entry in [3], in assay [4], in [6] and in [7] was “Not Active” each time.

With `COc1cc2c(c3oc(=O)c4c(c13)CCC4=O)[C@@H]1C=CO[C@@H]1O2` [AFLATOXIN], the IC50 result in [1], in [2], in assay [3], in assay [4], in assay [5] and in assay [6] was “Not Active” each time. Besides, the IC50 entry (at Nitric oxide synthase 1; in assay [7]; against Cathepsin G) was “Not Active” each time. Further, the inhibition constant (Ki) entry in assay [1], in assay [2], in assay [3], in [4], in assay [5] and in assay [6] was “Not Active” in each case. Moreover, the inhibitory constant (Ki) entry (on Nitric oxide synthase 1; in [7]; at Cathepsin G) was “Not Active” in each case.

As for `N=C(N)NC(=O)c1nc(Cl)c(N)nc1N` [AMILORIDE], the IC50 entry in assay [1], in assay [2], in assay [3], in [4], in assay [5] and in [6] was “Not Active” in each case. Also, the IC50 entry (against Nitric oxide synthase 1; in assay [7]; against Cathepsin G) was “Not Active” in each case. Also, the Ki entry in assay [3], in assay [4], in [6] and in assay [7] was “Not Active” throughout.

As for `Cc1cc(=O)n(-c2ccccc2)n1C` [ANTIPYRINE], the half-inhibitory concentration (IC50) entry in assay [1], in assay [2], in [3], in assay [4], in assay [5] and in assay [6] was “Not Active” each time. The IC50 result (on Nitric oxide synthase 1; in assay [7]; against Cathepsin G) was “Not Active” throughout. The Ki entry in assay [3], in [4], in assay [6] and in [7] was “Not Active” throughout.

For the compound `CN(C)c1ccc(C(=C2C=CC(=[N+](C)C)C=C2)c2ccc(N(C)C)cc2)cc1.[Cl-]` [GENTIAN VIOLET], the IC50 result was “Not Active” in assay [2]; “Not Active” in assay [3]; 3.44 µM in assay [4] (read-out: IC50); “Not Active” in assay [5]; “Not Active” in assay [6]; “Not Active” against Nitric oxide synthase 1. In addition, the IC50 result (in assay [7]; against Cathepsin G) was “Not Active” throughout. For the same compound, the inhibition constant Ki result was “Not Active” in [3], 3.35 µM in assay [4] (read-out: Ki), “Not Active” in [6] and “Not Active” in [7].
